According to the supplement of paper PMC10883282:

Tests used:
Experiment in all cases: relative viability vs DMSO control (72 h) (fraction); higher = more viable cells
SW1353 = system: SW1353
In short: (§1)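 Sarcoma cell lines in 384-well plates, seeded to reach 80–90% confluence, were given compound after 24 h and kept 72 h at 37 °C, 5% CO2, with 0.1% DMSO vehicle and a 5 µM positive control. Relative viability came from ATPLite as percent growth, averaged over up to triplicate wells. On the rescaled values, 1 equals full and 0 equals none.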

RD-ES = system: RD-ES
In short: as §1

SW684 = system: SW684
In short: as §1

KHOS-240S = system: KHOS-240S
In short: as §1

A204 = system: A204
In short: as §1

SW872 = system: SW872
In short: as §1

KHOS-NP = system: KHOS-NP
In short: as §1

SW982 = system: SW982
In short: as §1

G401 = system: G401
In short: as §1

SYO-1 = system: SYO-1
In short: as §1

HT1080 = system: HT1080
In short: as §1

SK-ES-1 = system: SK-ES-1
In short: as §1

N#CC1(c2ccc(NC(=O)c3cccnc3NCc3ccncc3)cc2)CCCC1 [Apatinib]
Conditions | relative viability
A204, 0.00017 µM | 1.03
A204, 0.00051 µM | 1.03
A204, 0.00152 µM | 1.05
A204, 0.00457 µM | 1.07
A204, 0.01372 µM | 1.02
A204, 0.04115 µM | 1.01
A204, 0.1235 µM | 0.992
A204, 0.3704 µM | 0.811
A204, 1.111 µM | 0.482
A204, 3.333 µM | 0.362
A204, 10 µM | 0.342
G401, 0.00017 µM | 1.006
G401, 0.00051 µM | 1
G401, 0.00152 µM | 0.995
G401, 0.00457 µM | 0.979
G401, 0.01372 µM | 1.01
G401, 0.04115 µM | 0.995
G401, 0.1235 µM | 0.955
G401, 0.3704 µM | 0.927
G401, 1.111 µM | 0.901
G401, 3.333 µM | 0.895
G401, 10 µM | 0.7567
HT1080, 0.00017 µM | 1.02
HT1080, 0.00051 µM | 1.05
HT1080, 0.00152 µM | 1.05
HT1080, 0.00457 µM | 1.081
HT1080, 0.01372 µM | 1.07
HT1080, 0.04115 µM | 1.05
HT1080, 0.1235 µM | 1.069
HT1080, 0.3704 µM | 1.04
HT1080, 1.111 µM | 1.03
HT1080, 3.333 µM | 1.04
HT1080, 10 µM | 0.9829
KHOS-240S, 0.00017 µM | 1.04
KHOS-240S, 0.00051 µM | 1.06
KHOS-240S, 0.00152 µM | 1.05
KHOS-240S, 0.00457 µM | 1.04
KHOS-240S, 0.01372 µM | 1.04
KHOS-240S, 0.04115 µM | 1.05
KHOS-240S, 0.1235 µM | 1.03
KHOS-240S, 0.3704 µM | 0.991
KHOS-240S, 1.111 µM | 0.97
KHOS-240S, 3.333 µM | 0.956
KHOS-240S, 10 µM | 0.873
KHOS-NP, 0.00017 µM | 1.03
KHOS-NP, 0.00051 µM | 1.04
KHOS-NP, 0.00152 µM | 1.05
KHOS-NP, 0.00457 µM | 1.05
KHOS-NP, 0.01372 µM | 1.06
KHOS-NP, 0.04115 µM | 1.08
KHOS-NP, 0.1235 µM | 1.04
KHOS-NP, 0.3704 µM | 1.027
KHOS-NP, 1.111 µM | 1
KHOS-NP, 3.333 µM | 0.918
KHOS-NP, 10 µM | 0.726
RD-ES, 0.00017 µM | 0.936
RD-ES, 0.00051 µM | 0.968
RD-ES, 0.00152 µM | 0.979
RD-ES, 0.00457 µM | 0.946
RD-ES, 0.01372 µM | 0.942
RD-ES, 0.04115 µM | 0.961
RD-ES, 0.1235 µM | 0.955
RD-ES, 0.3704 µM | 0.902
RD-ES, 1.111 µM | 0.91
RD-ES, 3.333 µM | 0.892
RD-ES, 10 µM | 0.798
SK-ES-1, 0.00017 µM | 0.968
SK-ES-1, 0.00051 µM | 0.986
SK-ES-1, 0.00152 µM | 0.95
SK-ES-1, 0.00457 µM | 0.964
SK-ES-1, 0.01372 µM | 1
SK-ES-1, 0.04115 µM | 0.991
SK-ES-1, 0.1235 µM | 0.999
SK-ES-1, 0.3704 µM | 1.01
SK-ES-1, 1.111 µM | 0.978
SK-ES-1, 3.333 µM | 0.936
SK-ES-1, 10 µM | 0.845
SW684, 0.00017 µM | 1.04
SW684, 0.00051 µM | 1.1
SW684, 0.00152 µM | 1.06
SW684, 0.00457 µM | 1.08
SW684, 0.01372 µM | 1.09
SW684, 0.04115 µM | 1.09
SW684, 0.1235 µM | 1.1
SW684, 0.3704 µM | 1.05
SW684, 1.111 µM | 1.07
SW684, 3.333 µM | 1.05
SW684, 10 µM | 1.02
SW872, 0.00017 µM | 1.06
SW872, 0.00051 µM | 1.07
SW872, 0.00152 µM | 1.05
SW872, 0.00457 µM | 1.05
SW872, 0.01372 µM | 1.08
SW872, 0.04115 µM | 1.08
SW872, 0.1235 µM | 1.05
SW872, 0.3704 µM | 1.02
SW872, 1.111 µM | 1.02
SW872, 3.333 µM | 1.03
SW872, 10 µM | 0.972
SW982, 0.00017 µM | 0.96
SW982, 0.00051 µM | 0.978
SW982, 0.00152 µM | 0.994
SW982, 0.00457 µM | 0.9695
SW982, 0.01372 µM | 0.99
SW982, 0.04115 µM | 1.009
SW982, 0.1235 µM | 1
SW982, 0.3704 µM | 0.958
SW982, 1.111 µM | 0.979
SW982, 3.333 µM | 0.975
SW982, 10 µM | 0.999
SW1353, 0.00017 µM | 1.03
SW1353, 0.00051 µM | 1.005
SW1353, 0.00152 µM | 0.988
SW1353, 0.00457 µM | 1.01
SW1353, 0.01372 µM | 0.9811
SW1353, 0.04115 µM | 0.992
SW1353, 0.1235 µM | 0.981
SW1353, 0.3704 µM | 0.948
SW1353, 1.111 µM | 0.935
SW1353, 3.333 µM | 0.994
SW1353, 10 µM | 0.928
SYO-1, 0.00017 µM | 1.01
SYO-1, 0.00051 µM | 1.03
SYO-1, 0.00152 µM | 1.01
SYO-1, 0.00457 µM | 1.02
SYO-1, 0.01372 µM | 1.01
SYO-1, 0.04115 µM | 1.02
SYO-1, 0.1235 µM | 0.957
SYO-1, 0.3704 µM | 0.91
SYO-1, 1.111 µM | 0.747
SYO-1, 3.333 µM | 0.678
SYO-1, 10 µM | 0.552
